Experimental findings from patent publication US20250145594A1, “MODULATORS OF THE INTEGRATED STRESS PATHWAY” (Calico Life Sciences LLC, priority 2020, published 2025) are described below.

The subject of the experiment is ATF4 luciferase reporter in HEK293T cells. The experiment is described as follows: ATF4-Luc assay (in vitro model of VWMD). The conditions noted are these: HEK293T cells carrying the ATF4 luciferase reporter, 1 μg/mL tunicamycin, One Glo luminescence. The format is cell-based, human. The gist of the method:
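Stable HEK293T line expressing firefly luciferase behind the human ATF4 5′-UTR, treated with 1 μg/mL tunicamycin plus compound for 7 hours. Luminescence read with One Glo; EC50 determined.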

As usually defined, the EC50 is the midpoint of the concentration-response curve. `O=C(N[C@H]1CC[C@H](n2cc(OCCOC(F)(F)F)cn2)CC1)[C@H]1C[C@@H](O)c2cc(Cl)c(Cl)cc2O1` [Compound 459, (2R,4R)-6,7-dichloro-4-hydroxy-N-[(1r,4R)-4-{4-[2-(trifluoromethoxy)ethoxy]-1H-pyrazol-1-yl}cyclohexyl]-3,4-dihydro-2H-1-benzopyran-2-carboxamide]: the half-maximal effective concentration (EC50) (Homo sapiens, HEK-293T, 7 h) is under 10 nM. On the same count and under the same terms, in the case of `O=C(NC12CC(n3cc(O[C@H]4C[C@@H](OC(F)(F)F)C4)cn3)(C1)C2)[C@H]1C[C@@H](O)c2cc(Cl)ccc2O1` [Compound 409, (2R,4R)-6-chloro-4-hydroxy-N-[3-(4-{[cis-3-(trifluoromethoxy)cyclobutyl]oxy}-1H-pyrazol-1-yl)bicyclo[1.1.1]pentan-1-yl]-3,4-dihydro-2H-1-benzopyran-2-carboxamide] it was under 10 nM. On to `O=C(NC12CC(n3cc(-c4ccc(OC(F)(F)F)nc4)cn3)(C1)C2)[C@@H]1C[C@@H](O)c2cc(Cl)ccc2O1` [Compound 351, (2S,4R)-6-chloro-4-hydroxy-N-(3-{4-[6-(trifluoromethoxy)pyridin-3-yl]-1H-pyrazol-1-yl}bicyclo[1.1.1]pentan-1-yl)-3,4-dihydro-2H-1-benzopyran-2-carboxamide], for which the concentration giving a half-maximal response (EC50) (Homo sapiens, HEK-293T, 7 h) is under 10 nM. In the case of `O=C(N[C@H]1C[C@H]2O[C@@H]1C[C@@H]2c1nnc([C@H]2C[C@@H](OC(F)(F)F)C2)o1)[C@@H]1C[C@H](O)c2cc(Cl)ccc2O1` (mixture of isomers) [Compound 186, (2S,4S)-6-chloro-4-hydroxy-N-[(1RS,2SR,4RS,5SR)-5-{5-[cis-3-(trifluoromethoxy)cyclobutyl]-1,3,4-oxadiazol-2-yl}-7-oxabicyclo[2.2.1]heptan-2-yl]-3,4-dihydro-2H-1-benzopyran-2-carboxamide], the EC50 (Homo sapiens, HEK-293T, 7 h) is 10 to 50 nM. `O=C(COc1ccc(Cl)c(F)c1)NC12CC(n3cc(OCCOC(F)(F)F)cn3)(C1)C2` [Compound 617, 2-(4-chloro-3-fluorophenoxy)-N-(3-{4-[2-(trifluoromethoxy)ethoxy]-1H-pyrazol-1-yl}bicyclo[1.1.1]pentan-1-yl)acetamide]: for the setting “7 hours”, the 50% effective concentration (EC50) was under 10 nM.
